Tested on: T1, extracellular lipase from A. japonicus LAB01
T1 construct: about 25 kDa on SDS-PAGE
Test: spectrophotometric p-nitrophenol release at […] nm, Michaelis-Menten hyperbola regression
Type: biochemical, Aspergillus japonicus
Conditions: Tris-HCl pH 8.0, 37 °C, Triton X-100 and gum arabic emulsion, 2-propanol; 0-1.4 mM substrate; partially purified enzyme; read-out: apparent KM

- Km: 130 µM
SMILES: CCCCCCCCCCCCCCCC(=O)Oc1ccc([N+](=O)[O-])cc1 [p-NPP, p-nitrophenyl palmitate]

Source: publication PMC4230215, “Lipolytic Potential of Aspergillus japonicus LAB01: Production, Partial Purification, and Characterisation of an Extracellular Lipase” (BioMed Research International, 2014)
